According to PMC7525492, “Microtiter plate-based antibody-competition assay to determine binding affinities and plasma/blood stability of CXCR4 ligands” (Scientific Reports, 2020):
Read-outs that look alike come from different tables or passages of the source. Bridge positions count the residues as written; N and C are the ends. Square brackets hold non-standard residues; d marks the D form. Ends that are not written are not given here. Peptide text beside a SMILES is read from it. * marks the point of attachment. 2Nal = N[C@@H](Cc1ccc2ccccc2c1)C(=O)O; Benzoyl(4-F) = O=C(c1ccc(F)cc1)*; Cit = NC(=O)NCCC[C@H](N)C(=O)O

Tests used:
[1] = target: T1, CXCR4 (Homo sapiens, UniProt P61073); experiment: 12G5 antibody competition assay on SupT1 cells; format: binding
Procedure: Compounds were serially diluted in ice cold PBS and 12G5-APC antibody was diluted in cold PBS containing 1% FCS. […] Plates were incubated at 4 °C in the dark for 2 h. Afterwards cells were washed twice by centrifugation with PBS containing 1% FCS and fixed with 2% paraformaldehyde (PFA). During all pipetting steps, plates were kept cool by using a cooling pad. Antibody binding was analyzed by flow cytometry (FACS CytoFLEX; Beckman Coulter) by determination of the mean fluorescence intensity (MFI) of at least 5.000 cells (50.000 cells per well) or 1.000 cells (5.000 cells per well).
Ki calculation3 Ki=IC50/1+L/Kd
For Ki = inhibitory constant; IC50 = half maximal inhibition for 12G5 binding; [L] = 12G5 concentration; Kd = dissociation constant of 12G5.
(§1) Statistical analysis was performed in GraphPad Prism (version 8.3.0). IC50 and IC90 curves and the areas under the curves (AUC) were determined by nonlinear regression.

[2] = Functional stability in human plasma read out by 12G5 competition; format: in vitro ADME; conditions: for half-life at 20 µM: human, plasma
Procedure: The t = 0 sample was immediately taken and stored at − 80 °C. Plasma/compound or blood/compound mixture was then transferred to 37 °C and shook at 350 rpm. At given time points samples were taken and stored at − 80 °C. For measuring the functional activity of the plasma/peptide samples, the mixtures were thawed and serially diluted in ice cold PBS (starting with 100% sample). 12G5-APC antibody competition was then performed as described before. Note, that during the competition process the samples are 1:1 diluted with the antibody and the highest plasma concentration on cells was 50%. For blood/peptide functional stability, samples were thawed and centrifuged at 14,000 rpm for 3 min at 4 °C to remove cells and debris. The supernatant was then serially diluted in PBS (starting with 100% sample) and 12G5-antibody competition assay was performed. […] Afterwards cells were washed again and analyzed for bound antibody.
as §1

[3] = in vitro; format: in vitro ADME, human
Procedure: Compounds were 150-fold diluted in human plasma or whole human blood to reach final concentrations of 20 µM. The t = 0 sample was immediately taken and stored at − 80 °C. Plasma/compound or blood/compound mixture was then transferred to 37 °C and shook at 350 rpm. At given time points samples were taken and stored at − 80 °C. For measuring the functional activity of the plasma/peptide samples, the mixtures were thawed and serially diluted in ice cold PBS (starting with 100% sample). 12G5-APC antibody competition was then performed as described before. Note, that during the competition process the samples are 1:1 diluted with the antibody and the highest plasma concentration on cells was 50%. For blood/peptide functional stability, samples were thawed and centrifuged at 14,000 rpm for 3 min at 4 °C to remove cells and debris. The supernatant was then serially diluted in PBS (starting with 100% sample) and 12G5-antibody competition assay was performed. After the 2 h incubation, the cells were washed by centrifugation (1.300 rpm, 4 °C) and 50 µL of 1-step-Fix/Lyse solution (Thermo Fisher #00-5333-54) was added for 15 min at room temperature. Afterwards cells were washed again and analyzed for bound antibody.
Statistical analysis was performed in GraphPad Prism (version 8.3.0). IC50 and IC90 curves and the areas under the curves (AUC) were determined by nonlinear regression. For half-life calculations, the IC50 values for each time point as well as the AUCs were analyzed and normalized relative to t = 0. Activities were then determined ((IC50 (t = 0) / IC50 (t)) × 100) for each time point and half-lives determined by a One-Phase-Decay model.

[4] = system: CXCR4-tropic HIV-1; conditions: read-out: IC50 HIV-1; TZM-bl cells, infection rate after 3 days; mean ± SEM of 3 assays
[5] = system: SupT1 cells
[6] = 20 µM, up to 60 min, 37 °C, mouse plasma from a single animal
[7] = target: T1, CXCR4; experiment: 12G5 antibody competition assay on SupT1 cells; format: binding; conditions: 1, 2 and 4 h incubation, Fig. S2
[8] = system: CXCL12 migration; conditions: cited from earlier work
[9] = system: CXCR4-tropic HIV-1; set-up: method as in PMID 25921529, PMID 30768790; conditions: cited from earlier work
[10] = target: T1, CXCR4; experiment: 1D9 control antibody competition on SupT1 cells; format: binding; conditions: PE-labelled 1D9, SupT1 cells, single experiment
[11] = read-out: IC50 Migration, 100 ng/mL CXCL12, 4 h, mean ± SEM of 3 assays

T1 sequence (P61073 whole entry): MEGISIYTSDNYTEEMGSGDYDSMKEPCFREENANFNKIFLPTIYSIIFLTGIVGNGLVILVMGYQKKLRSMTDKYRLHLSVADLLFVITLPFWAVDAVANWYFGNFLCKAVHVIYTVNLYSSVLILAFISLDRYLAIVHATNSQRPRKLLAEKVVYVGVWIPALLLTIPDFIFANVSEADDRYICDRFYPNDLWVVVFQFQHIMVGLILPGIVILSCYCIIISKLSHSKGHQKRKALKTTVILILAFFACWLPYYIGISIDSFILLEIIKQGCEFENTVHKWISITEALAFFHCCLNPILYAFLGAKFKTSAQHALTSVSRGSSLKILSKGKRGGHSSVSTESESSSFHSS

Molecule	IC50 ([1]; SupT1 cells, APC-labelled 12G5, 2 h at 4 °C, mean ± SEM of 3 assays) [nM]	Ki ([1]; calculated from IC50 12G5 by Cheng-Prusoff, Kd of 12G5 151.5 pM) [nM]	12G5-competing activity after 24 h in plasma ([2]; 20 µM in 99.3% pooled human plasma, 37 °C, 24 h)	half-life t1/2 in plasma ([2]; 20 µM in pooled human plasma (6 donors), 37 °C, from IC50 relative to t = 0, one-phase decay) [min]	half-life t1/2 in plasma ([2]; 20 µM in pooled human plasma (6 donors), 37 °C, from IC50 relative to t = 0, one-phase decay, listed as WCS02)	inactivation in plasma with L-leucinethiol ([2]; human plasma pretreated with 300 µM L-leucinethiol (leucyl aminopeptidase inhibitor))	half-life at 20 µM ([2]; 20 µM in plasma of an individual donor, 37 °C, read-out: half-life t1/2 in plasma) [min]	half-life at 20 µM ([2]; 20 µM in pooled human plasma (6 donors), 37 °C, from IC50 relative to t = 0, one-phase decay, read-out: half-life t1/2 in plasma) [min]	half-life at 20 µM ([2]; 20 µM in pooled human plasma, 37 °C, from areas under inhibition curves, read-out: half-life t1/2 in plasma from AUC) [min]	half-life t1/2 in blood ([3]; 20 µM in whole EDTA blood of an individual donor, 37 °C) [min]	half-life at 20 µM ([3]; human, 20 µM in whole EDTA blood of an individual donor, 37 °C, read-out: half-life t1/2 in blood) [min]	stability in blood compared to plasma ([3]; human, plasma)	IC50 [4] [nM]	IC50 [5, 11] [nM]	IC50 ([5]; read-out: IC50 migration, SupT1 towards CXCL12) [nM]	inactivation in mouse plasma versus human plasma [6]	IC50, IC90 and AUC after different incubation times [7]	IC50 leukemia cell migration towards CXCL12 [8]	IC50 CXCR4-tropic HIV-1 infection [9]	effect on 1D9 antibody binding [10]
IVRWSKKVPCVS [EPI-X4 WSC02]	290 ± 75	111 ± 29	remained partially active	10	~ 10 min	largely prevented WSC02 inactivation	9.7	9.7	9.7	9	8.9	less stable in blood compared to plasma	257 ± 109	15800	16000	more rapid inactivation of the peptide in mouse plasma	No significant differences	nanomolar range	nanomolar range	–
N=C(N)NCCC[C@H](NC(=O)[C@@H]1CSSC[C@H](NC(=O)[C@H](Cc2ccc3ccccc3c2)NC(=O)[C@H](CCCNC(=N)N)NC(=O)[C@H](CCCNC(=N)N)NC(=O)c2ccc(F)cc2)C(=O)N[C@@H](Cc2ccc(O)cc2)C(=O)N[C@@H](CCCNC(N)=O)C(=O)N[C@@H](CCCCN)C(=O)N[C@H](CCCCN)C(=O)N2CCC[C@H]2C(=O)N[C@@H](Cc2ccc(O)cc2)C(=O)N[C@@H](CCCNC(=N)N)C(=O)N[C@@H](CCCNC(N)=O)C(=O)N1)C(N)=O [BKT-140] ({Benzoyl(4-F)}-RR[2Nal]CY[Cit]K[dK]PYR[Cit]CR-NH2; disulfide 4-13; N-terminus and C-terminus assumed)	–	–	–	–	–	–	–	–	–	–	–	–	435 ± 153	932 ± 131	–	–	–	–	–	seemed to reduce 1D9 binding
